# From ChEMBL document CHEMBL1201862, “PubChem BioAssay data set” (2004)
#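 Following 48 hours of exposure in 96-well plates, responses at five concentrations were used to interpolate endpoints linearly. GI50: concentration for 50% inhibition of growth.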 The source made the active and inactive calls. Rule as the data show it: active = GI50 up to about 1.1 µM and inactive = higher.
# Legend:
# Experiment in all cases: NCI tumour cell line growth inhibition, 48 h
# [1] = system: COLO 205
# [2] = system: 786-0
# [3] = system: CCRF-CEM
# [4] = system: MDA-MB-435
# [5] = system: SK-MEL-2
# [6] = system: SK-OV-3
# [7] = system: SNB-75
# [8] = system: Hs-578T
# [9] = system: A498
# [10] = system: Malme-3M
# [11] = system: M14
# [12] = system: MDA-MB-231
# [13] = system: CAKI-1
# [14] = system: BT-549
# [15] = system: OVCAR-5
# [16] = system: NCI-H226
# [17] = system: NCI/ADR-RES
# [18] = system: OVCAR-3
# [19] = system: SF-539
# [20] = system: DU-145
# [21] = system: UACC-257
# [22] = system: LOX IMVI
# [23] = system: HCC 2998
# [24] = system: HOP-62
# [25] = system: SK-MEL-28
# [26] = system: TK-10
# [27] = system: SNB-19
# [28] = system: UACC-62
# [29] = system: HT-29
# [30] = system: SW-620
# [31] = system: T47D
# [32] = system: HCT-116
# [33] = system: MDA-N
# [34] = system: NCI-H522
# [35] = system: MOLT-4
# [36] = system: EKVX
# [37] = system: U-251
# [38] = system: K562
# [39] = system: IGROV-1
# [40] = system: HCT-15
# [41] = system: SF-295
# [42] = system: PC-3
# [43] = system: RPMI-8226
# [44] = system: OVCAR-8
# [45] = system: MCF7
# [46] = system: KM12
# [47] = system: HOP-92
# [48] = system: NCI-H23
# [49] = system: SN12C
# [50] = system: SK-MEL-5
# [51] = system: A549
# [52] = system: HL-60
# [53] = system: ACHN
# [54] = system: SF-268
# [55] = system: SR
# [56] = system: OVCAR-4
# [57] = system: NCI-H460
# [58] = system: RXF 393
# [59] = system: UO-31
smiles,measurement,setting,value
COc1nc(N)c(N=O)c(OCc2ccccc2)n1,GI50,[1],1.09 µM (active)
same,GI50,[2],5.21 µM (inactive)
same,GI50,[3],2.31 µM (inactive)
same,GI50,[4],6.31 µM (inactive)
same,GI50,[5],> 10 µM (inactive)
same,GI50,[6],> 10 µM (inactive)
same,GI50,[7],> 10 µM (inactive)
same,GI50,[8],> 10 µM (inactive)
same,GI50,[9],> 10 µM (inactive)
same,GI50,[10],3.12 µM (inactive)
same,GI50,[11],4.84 µM (inactive)
same,GI50,[12],3.32 µM (inactive)
same,GI50,[13],3.51 µM (inactive)
same,GI50,[14],4.01 µM (inactive)
same,GI50,[15],> 10 µM (inactive)
same,GI50,[16],> 10 µM (inactive)
same,GI50,[17],6.55 µM (inactive)
same,GI50,[18],4.01 µM (inactive)
same,GI50,[19],3.3 µM (inactive)
same,GI50,[20],> 10 µM (inactive)
same,GI50,[21],> 10 µM (inactive)
same,GI50,[22],4.19 µM (inactive)
same,GI50,[23],> 10 µM (inactive)
same,GI50,[24],> 10 µM (inactive)
same,GI50,[25],> 10 µM (inactive)
same,GI50,[26],> 10 µM (inactive)
same,GI50,[27],> 10 µM (inactive)
same,GI50,[28],5.89 µM (inactive)
same,GI50,[29],3.38 µM (inactive)
same,GI50,[30],1.61 µM (inactive)
same,GI50,[31],2.76 µM (inactive)
same,GI50,[32],9.71 µM (inactive)
same,GI50,[33],5.36 µM (inactive)
same,GI50,[34],1.71 µM (inactive)
same,GI50,[35],8.39 µM (inactive)
same,GI50,[36],2.64 µM (inactive)
same,GI50,[37],> 10 µM (inactive)
same,GI50,[38],> 10 µM (inactive)
same,GI50,[39],> 10 µM (inactive)
same,GI50,[40],2500 nM
same,GI50,[41],> 10 µM (inactive)
same,GI50,[42],> 10 µM (inactive)
same,GI50,[43],> 10 µM (inactive)
same,GI50,[44],3.52 µM (inactive)
same,GI50,[45],5.04 µM (inactive)
same,GI50,[46],> 10 µM (inactive)
same,GI50,[47],> 10 µM (inactive)
same,GI50,[48],> 10 µM (inactive)
same,GI50,[49],7.59 µM (inactive)
same,GI50,[50],7.89 µM (inactive)
same,GI50,[51],> 10 µM (inactive)
same,GI50,[52],4.84 µM (inactive)
same,GI50,[53],7.35 µM (inactive)
same,GI50,[54],> 10 µM (inactive)
same,GI50,[55],4.84 µM (inactive)
same,GI50,[56],3.61 µM (inactive)
same,GI50,[57],9.29 µM (inactive)
same,GI50,[58],5.15 µM (inactive)
CNC(=O)[C@H](Cc1ccccc1)NC(=O)N(CCC#N)CCN(C(=O)N[C@@H](Cc1ccccc1)C(=O)OC)c1ccccc1,GI50,[1],> 100 µM (inactive)
same,GI50,[2],> 100 µM (inactive)
same,GI50,[3],> 100 µM (inactive)
same,GI50,[4],> 100 µM (inactive)
same,GI50,[5],> 100 µM (inactive)
same,GI50,[6],> 100 µM (inactive)
same,GI50,[7],16.6 µM (inactive)
same,GI50,[8],> 100 µM (inactive)
same,GI50,[9],> 100 µM (inactive)
same,GI50,[10],> 100 µM (inactive)
same,GI50,[11],> 100 µM (inactive)
same,GI50,[12],> 100 µM (inactive)
same,GI50,[13],> 100 µM (inactive)
same,GI50,[14],> 100 µM (inactive)
same,GI50,[15],> 100 µM (inactive)
same,GI50,[16],> 100 µM (inactive)
same,GI50,[17],> 100 µM (inactive)
same,GI50,[18],> 100 µM (inactive)
same,GI50,[19],> 100 µM (inactive)
same,GI50,[20],> 100 µM (inactive)
same,GI50,[21],> 100 µM (inactive)
same,GI50,[22],> 100 µM (inactive)
same,GI50,[59],> 100 µM (inactive)
same,GI50,[23],> 10 µM (inactive)
same,GI50,[24],> 100 µM (inactive)
same,GI50,[25],> 100 µM (inactive)
same,GI50,[26],> 100 µM (inactive)
same,GI50,[27],> 100 µM (inactive)
same,GI50,[28],> 100 µM (inactive)
same,GI50,[29],> 100 µM (inactive)
same,GI50,[30],> 100 µM (inactive)
same,GI50,[31],> 100 µM (inactive)
same,GI50,[32],> 100 µM (inactive)
same,GI50,[33],> 100 µM (inactive)
same,GI50,[34],> 100 µM (inactive)
same,GI50,[35],> 100 µM (inactive)
same,GI50,[36],> 100 µM (inactive)
same,GI50,[37],> 100 µM (inactive)
same,GI50,[38],> 100 µM (inactive)
same,GI50,[40],> 100000 nM
same,GI50,[41],> 100 µM (inactive)
same,GI50,[42],> 100 µM (inactive)
same,GI50,[43],> 100 µM (inactive)
same,GI50,[44],> 100 µM (inactive)
same,GI50,[45],15.7 µM (inactive)
same,GI50,[46],> 100 µM (inactive)
same,GI50,[47],> 100 µM (inactive)
same,GI50,[48],> 100 µM (inactive)
same,GI50,[50],> 100 µM (inactive)
same,GI50,[51],> 100 µM (inactive)
same,GI50,[52],> 100 µM (inactive)
same,GI50,[53],> 100 µM (inactive)
same,GI50,[54],> 100 µM (inactive)
same,GI50,[55],> 100 µM (inactive)
same,GI50,[56],> 100 µM (inactive)
same,GI50,[57],> 100 µM (inactive)
same,GI50,[58],> 100 µM (inactive)
